Patent US5705336A, “Assay for sensitivity of tumors to DNA-platinating chemotherapy” (The United States of America as represented by the …, priority 1995, dated 1998)

Assays:
HuT 78 [1] = conditions: removed in 6 hrs following a 1 hr, 10 μM exposure, taken from ref. 26; cited from earlier work
HuT 78 [2] = assay: inhibition of growth of HuT 78 cells, 3 day continuous cisplatin exposure; assay type: cell-based, human; conditions: continuous exposure to cisplatin for 3 days, 50% reduction in cell number
Protocol: (§1) The expression of total ERCC1 mRNA, exon VIII^- mRNA and XPA mRNA was examined in three human T lymphocyte cell lines (HuT 78, H9 and MOLT-4), using essentially the methods described in Example 1. The cells were obtained from the American Type Culture Collection, Rockville, Md. Cells were cultured in RPMI-1640 medium supplemented with 10% heat-inactivated calf serum, 100 μg/ml penicillin, 100 μg/ml streptomycin and 2 mM glutamine.
(§2) All cell lines were assayed for sensitivity to cisplatin by measurement of the inhibition of growth following 3 day cisplatin exposures ranging from 0.5 to 100 μM. Cell lines were seeded at an initial cell density of 5×10^4 cells/ml, After continuous contact with drug for 3 days, cell counts obtained by Coulter counter were expressed as a percentage of counts obtained from aliquots of control cells, cultured in the absence of drug. Cells treated similarly but for the absence of drug served as controls. IC50 values were assessed as those drug levels effecting a 50% reduction in cell number as compared to Untreated cells.

HuT 78 [3] = conditions: platination level that reduces CAT activity to 37% of control, taken from ref. 26; cited from earlier work
MOLT-4 [4] = conditions: removed in 6 hrs following a 1 hr, 10 μM exposure, taken from ref. 26; cited from earlier work
MOLT-4 [5] = assay: inhibition of growth of MOLT-4 cells, 3 day continuous cisplatin exposure; assay type: cell-based, human; conditions: continuous exposure to cisplatin for 3 days, 50% reduction in cell number
Protocol: as §1, §2

[6] = system: three human T lymphocyte cell lines (HuT 78, H9 and MOLT-4); assay: cisplatin sensitivity compared across the three T cell lines; assay type: cell-based; conditions: across HuT 78, H9 and MOLT-4
Protocol: as §1, §2

H9 [7] = conditions: platination level that reduces CAT activity to 37% of control, taken from ref. 26; cited from earlier work
MOLT-4 [8] = conditions: platination level that reduces CAT activity to 37% of control, taken from ref. 26; cited from earlier work
H9 [9] = conditions: removed in 6 hrs following a 1 hr, 10 μM exposure, taken from ref. 26; cited from earlier work
H9 [10] = assay: inhibition of growth of H9 cells, 3 day continuous cisplatin exposure; assay type: cell-based, human; conditions: continuous exposure to cisplatin for 3 days, 50% reduction in cell number
Protocol: as §1, §2

N.N.[Cl][Pt][Cl] [cisplatin]
Cellular DNA Repair (pg Pt/μg DNA removed in 6 hrs) (HuT 78 [1]): 5.6 pg Pt/μg DNA
IC50 (HuT 78 [2]): 830 nM
Reactivation of platinated plasmid Bo (HuT 78 [3]): 22 adducts/plasmid
Cellular DNA Repair (pg Pt/μg DNA removed in 6 hrs) (MOLT-4 [4]): 2.3 pg Pt/μg DNA
IC50 (MOLT-4 [5]): 330 nM
cisplatin sensitivity varied by [6]: about 3 fold
Reactivation of platinated plasmid Bo (H9 [7]): 18 adducts/plasmid
Reactivation of platinated plasmid Bo (MOLT-4 [8]): 13 adducts/plasmid
Cellular DNA Repair (pg Pt/μg DNA removed in 6 hrs) (H9 [9]): 3.9 pg Pt/μg DNA
IC50 (H9 [10]): 450 nM
